Measured values reported in patent publication US6809208B2, “3-Arylbenzofuranones with electron-withdrawing substituents as stabilizers” (Ciba Specialty Chemicals Corporation, priority 2000, dated 2004).
One block for each compound: values may come before it.

What was measured:
[1] = Stabilization of polyethylene during processing (Brabender plastograph); settings: 0.05 part compound and 0.05 part Irganox 1010 per 100 parts polyethylene; 220° C., 50 rpm; without compound 9.7
Protocol: 100 parts of polyethylene powder (Lupolen®5260 Z) are blended with 0.05 part of Irganox®1010 (pentaerythritol tetrakis[3-(3,5-di-tert-butyl-4-hydroxyphenyl)propionate]) and 0.05 part of a compound of Table 5 and the blend is kneaded in a Brabender plastograph at 220° C. and 50 rpm. During this time the kneading resistance is recorded continuously as torque. In the course of the kneading time the polymer begins to crosslink after prolonged constancy, as can be determined by the rapid increase in torque. The time taken until a marked increase in torque is shown in Table 5 as a measure of the stabilizing action. The longer this time is the better the stabilizing action.

[2] = Stabilization of multiple-extruded polypropylene; settings: 0.05% of compound; heating zones 260, 270, 280° C.; measured at 230° C./2.16 kg; without compound 17.5
Protocol: 1.3 kg of polypropylene powder (Profax 6501), which has been prestabilized with 0.025% of Irganox®1076 (n-octadecyl 3-[3,5-di-tert-butyl-4-hydroxyphenyl]propionate) (melt index 3.2 g/10 min, measured at 230° C./2.16 kg) are blended with 0.05% of Irganox®1010 (pentaerythritol tetrakis[3-(3,5-di-tert-butyl-4-hydroxyphenyl)propionate]), 0.05% of calcium stearate, 0.03% of DHT 4A® (Kyowa Chemical Industry Co., Ltd., [Mg4.5Al2(OH)13CO3.3.5H2O]) and 0.05% of compound of Table 4. This blend is then extruded in an extruder having a cylinder diameter of 20 mm and a length of 400 mm at 100 rpm, the 3 heating zones being adjusted to the following temperatures: 260, 270, 280° C. The extrudate is cooled by drawing it through a water bath and is then granulated. This granulate is repeatedly extruded. After 3 extrusions, the melt index is measured (at 230° C./2.16 kg). A substantial increase in the melt index denotes pronounced chain degradation, i.e. poor stabilization.

[3] = Light-colored SBR-vulcanisate (Example 23): ΔL-color after 3 weeks in diffuse daylight; settings: 2.0 phr stabilizer; 3 weeks at room temperature in diffuse daylight; scale 0 to 100, 100 = no discoloration; without stabilizer 97
Protocol: (§1) 100 parts by weight of Cariflex®S-1502 (styrene/butadiene rubber, Shell) are processed at 60° C., in a mixing mill, with 30.0 parts by weight of Kronos®CL 220 [titanium dioxide (pigment), Kronos Titan GmbH], 30.0 parts by weight of Aktisil®MM [kaolin (filler), Hoffmann Mineral, Neuburg/Donau], 5.0 parts by weight of Naftolen®N 401 [plasticiser, Metallgesellschaft], 10.0 parts by weight of zinc oxide [vulcanization activator], 2.0 parts by weight of stearic acid [vulcanization activator], 2.0 parts by weight of sulfur [vulcanizing agent], 1.0 part by weight of Vulkacit®MOZ [vulcanization accelerator, Bayer], 0.25 part by weight of Vulkacit®Thiuram [vulcanization accelerator, […], to form a homogeneous mixture, the vulcanization system (sulfur, Vulkacit®MOZ and Vulkacit®Thiuram) not being added until the end of the mixing process. The mixture is vulcanized in electrical vulcanization presses at 150° C. until T95 is reached in the rheometer curves to form elastomer plates 2 mm thick, 21 cm long and 8.0 cm wide.
The remaining elastomer plates are stored for 3 weeks at room temperature in a standard laboratory atmosphere in diffuse daylight. The ΔL-color of those plates is then determined according to DIN 6167, which corresponds to a scale of from 0 to 100. No discoloration is indicated by a value of 100.

[4] = Prevention of migration of the oxidized developer in a color photographic material (three layer test elements, interlayer scavenger); settings: 20 mg.m^−2 scavenger in interlayer; AGFA P-94 developing process; control without scavenger 0.293
Protocol: To evaluate compounds of this invention with respect to their ability as interlayer scavengers for oxidized developing agent, three layer photographic test elements are prepared by providing layers in the order indicated on a polyethylene-coated paper support:
(2) An interlayer containing:
The test elements are imagewise exposed through a step wedge with density increment 0.15 and thereafter subjected to the AGFA P-94 developing process.
Upon processing of the test elements, some oxidized developer is prone to migrate from the layer in which it is formed, for example the undermost, magenta-dye-providing layer, to the topmost layer containing the cyan-dye-forming coupler, thereby producing unwanted cyan dye. The amount of cyan dye that is generated depends on the ability of the interlayer to prevent the diffusion of oxidized developer.

[5] = Light-colored SBR-vulcanisate, ozone atmosphere for 96 hours: crack formation; set-up: key: grade 0: Grade 0 denotes no cracks; grade 1 denotes narrow flat cracks; grade 2 denotes moderately broad, moderately deep cracks, clearly visible; grade 3 denotes broad and deep cracks; settings: 2.0 phr stabilizer, ozone 50 pphm, 40° C., dynamic elongation, without stabilizer grade 2
Protocol: as §1
Some of the elastomer plates so obtained are tested for the action of ozone according to the ASTM standard D 3395-86 while subject to dynamic elongation. In this test the plates are first stored for 30 days in a standard atmosphere [23/50 SN-ISO 291]. Test specimens measuring 20 cm by 1 cm are then punched out and exposed to an ozone atmosphere for 96 hours (ozone content: 50 pphm; temperature: 40° C.; humidity: 50% rel.; elongation: 0 to 25%; elongation rate: 0.5 Hz; number of load cycles: approximately 173 000). The test plates are then assessed for crack formation according to ASTM D 3395-86. Grade 0 denotes no cracks; grade 1 denotes narrow flat cracks; grade 2 denotes moderately broad, moderately deep cracks, clearly visible; grade 3 denotes broad and deep cracks. The lower the grade number, the better the stabilization of the elastomer plates.

[6] = Stabilization of polycarbonate (oven ageing at 135° C., yellowness index and transmission); settings: 0.01% stabilizer; for Yellowness index prior to oven-ageing: 2 mm plates, ASTM D 1925-70; for Transmission in % prior to oven-aging / Transmission in % after 2000 hours at 135° C.: at 450 nm; for Transmission in % after 2000 hours at 135° C.: without stabilizer 76.4; for Yellowness index after 2000 hours at 135° C.: circulating air oven, without stabilizer 25.0
Protocol: This mixture is then extruded in a Schwabenthan extruder at a maximum of 280° C. The polymer string is then granulated. Using an injection moulding machine, plates having a layer thickness of 2 mm are then moulded from the granulate so obtained at a maximum of 300° C. […] Low YI values denote little discoloration, high YI values high discoloration of the patterns. […] The results are compiled in Tables 17 and 18.

[7] = Stabilization of multiple-extruded polypropylene at high temperature; set-up: unit not given here; settings: measured at 230° C./2.16 kg
Protocol: This blend is then extruded in an extruder having a cylinder diameter of 20 mm and a length of 400 mm at 100 rpm, the 3 heating zones being adjusted to the following temperatures: 280, 320, 340° C. The extrudate is cooled by drawing it through a water bath and is then granulated. This granulate is repeatedly extruded. […] A substantial increase in the melt index denotes pronounced chain degradation, i.e. poor stabilization.

[8] = Stabilisation of polybutylene terephthalate (impact strength in oven-ageing test at 160° C.); settings: for Impact strength after 360 h: without stabilizer 26
Protocol: 1.0 kg of a polybutylene terephthalate powder which has been dried for 10 hours at 100° C. in a vacuum drying oven (Crastin®S600, of Ciba Specialty Chemicals Inc.) is charged with the stabilizers listed in Table 20 and is mixed for 2 minutes in a Henschel mixer. This mixture is then extruded in a twin-screw extruder (type Berstorff) at a maximum of 250° C. and is then granulated. In an injection moulding apparatus, the granulate so obtained is moulded at a maximum of 260° C. to little rods 4×6 mm thick and 50 mm long. These little rods are then aged in a circulating air oven at 160° C. After 360 hours the impact strength of the rods is measured in KJ/m^2. The higher the values, the better the stabilization.

[9] = Stabilization of polycarbonate (Weather-O-Meter exposure); settings: 0.30% stabilizer; Weather-O-Meter WOM CI 65; without stabilizer 30.2
Protocol: 1.0 kg of a polycarbonate powder which has been dried for 8 hours at 120° C. in a vacuum drying oven (Lexan®145, of General Electric) is charged with the stabilizers listed in Table 21 and is mixed for 2 minutes in a Henschel mixer. This mixture is then extruded in a Schwabenthan extruder at a maximum of 280° C. The polymer string is then granulated. Using an injection moulding machine, plates having a layer thickness of 2 mm are then moulded from the granulate so obtained at a maximum of 300° C. These plates are then irradiated in a Weather-O-Meter (WOM CI 65) for 2500 hours at a black standard temperature of 63° C., at a dry/wet cycle of 102/18 minutes and at an intensity of 0.35 W/m^2 at 340 nm. The yellowness index (YI) of these plates is then determined according to ASTM D 1925-70. Low YI values denote little discoloration, high YI values high discoloration of the plates. […]

- melting point: 146 to 147 °C
SMILES: CC(C)(C)c1cc2c(c(C(C)(C)C)c1)OC(=O)C2c1ccc(F)cc1 (stereo not shown) [(105), 5,7-di-tert-butyl-3-(4-fluorophenyl)-3H-benzofuran-2-one]
- Time until increase in torque [1]: 27.0 min
- Melt index after 3 extrusions [2]: 4.7

- melting point: 127 to 128 °C
SMILES: CC(C)(C)c1cc2c(c(C(C)(C)C)c1)OC(=O)C2c1ccc(C(F)(F)F)cc1 (stereo not shown) [Compound (101), 5,7-di-tert-butyl-3-(4-trifluoromethyl-phenyl)-3H-benzofuran-2-one]
- Time until increase in torque [1]: 27.5 min
- ΔL-color according to DIN 6167 [3]: 95
- Cyan density at a magenta density of 1.5 [4]: 0.253
- Melt index after 3 extrusions [2]: 4.7
- Crack formation according to ASTM D 3395-86 [5]: grade 1
- Yellowness index prior to oven-ageing [6]: 3.4
- Transmission in % prior to oven-aging [6]: 85.8%
- Transmission in % after 2000 hours at 135° C. [6]: 81.3%
- Yellowness index after 2000 hours at 135° C. [6]: 16.4
- Melt index after 5 extrusions ([7]; 280° C., stabilizer 0.015% by weight): 8.5
- Melt index after 5 extrusions ([7]; 320° C., stabilizer 0.015% by weight): 19.6
- Melt index after 5 extrusions ([7]; 340° C., stabilizer 0.015% by weight): 22.5

- melting point: 136 to 137 °C
SMILES: CC(C)(C)c1cc2c(c(C(C)(C)C)c1)OC(=O)C2c1ccc(C#N)cc1 (stereo not shown) [Compound (106), 5,7-di-tert-butyl-3-(4-cyanophenyl)-3H-benzofuran-2-one]

SMILES: COC(=O)c1ccc(C2C(=O)Oc3c2cc(C(C)(C)C)cc3C(C)(C)C)cc1 (stereo not shown) [Compound (109), 5,7-di-tert-butyl-3-(4-methoxycarbonylphenyl)-3H-benzofuran-2-one]
- Time until increase in torque [1]: 27.5 min
- Cyan density at a magenta density of 1.5 [4]: 0.254
- Melt index after 3 extrusions [2]: 4.8

SMILES: CCCCCCCCCCCCCCCCCCOC(=O)c1ccc(C2C(=O)Oc3c2cc(C(C)(C)C)cc3C(C)(C)C)cc1 (stereo not shown) [Compound (112)]
- Yellowness index prior to oven-ageing [6]: 3.5
- Transmission in % prior to oven-aging [6]: 85.9%
- Transmission in % after 2000 hours at 135° C. [6]: 81.8%
- Yellowness index after 2000 hours at 135° C. [6]: 14.3

SMILES: Cc1cc(CCC(=O)OCCOCCOCCOC(=O)CCc2cc(C)c(O)c(C(C)(C)C)c2)cc(C(C)(C)C)c1O [Irganox ®245]
- Impact strength after 0 h ([8]; 0.05% stabilizer): 132 KJ/m^2
- Impact strength after 360 h ([8]; 0.05% stabilizer): 111 KJ/m^2
- Impact strength after 0 h ([8]; 0.10% stabilizer): 135 KJ/m^2
- Impact strength after 360 h ([8]; 0.10% stabilizer): 114 KJ/m^2

SMILES: CC(C)(C)c1ccc(OP(Oc2ccc(C(C)(C)C)cc2C(C)(C)C)c2ccc(-c3ccc(P(Oc4ccc(C(C)(C)C)cc4C(C)(C)C)Oc4ccc(C(C)(C)C)cc4C(C)(C)C)cc3)cc2)c(C(C)(C)C)c1 [Sandostab ®P-EPQ, tetrakis(2,4-di-tert-butylphenyl)-4,4′-biphenylene diphosphonite]
- Melt index after 5 extrusions ([7]; 280° C., stabilizer 0.050% by weight): 6.3
- Melt index after 5 extrusions ([7]; 320° C., stabilizer 0.050% by weight): 23.9
- Melt index after 5 extrusions ([7]; 340° C., stabilizer 0.050% by weight): 61.5

SMILES: CC(C)(c1ccccc1)c1cc(-n2nc3ccccc3n2)c(O)c(C(C)(C)c2ccccc2)c1 [Tinuvin ®234]
- Yellowness index after 2500 h exposure to light [9]: 17.8

SMILES: CC(C)(C)CC(C)(C)c1cc(Cc2cc(C(C)(C)CC(C)(C)C)cc(-n3nc4ccccc4n3)c2O)c(O)c(-n2nc3ccccc3n2)c1 [Tinuvin ®360]
- Yellowness index after 2500 h exposure to light [9]: 16.6

SMILES: CCCCCCOc1ccc(-c2nc(-c3ccccc3)nc(-c3ccccc3)n2)c(O)c1 [Tinuvin ®1577]
- Yellowness index after 2500 h exposure to light [9]: 11.2
